# Results: patent US6977254B2, “Hydroxy cyclohexenyl phenyl carboxamides tocolytic oxytocin receptor antagonists” (Wyeth, priority 2001, dated 2005)
# Target: T1, human vasopressin V1a receptor subtype (Homo sapiens, UniProt P37288)
# T1 construct: host or cells: CHO cells, stably transfected (pZeoSV vector for the Thibonnier line); membranes
# Test: Vasopressin binding in CHO cell membranes expressing human vasopressin V1a subtype receptors ([3H]Manning ligand)
# Conditions: for IC50: value in parentheses; for inhibition at 0.1 µM / V1a % inhibition @ 100 nM: 100 nM, value without parentheses
# From the text: Vasopressin Binding in Chinese Hamster Ovary Cell Membranes Expressing Human Vasopressin V1a Subtype Receptors
# Chinese hamster ovary cells (CHO cells) stably transfected with the human vasopressin V1a subtype receptors were either obtained from Biosignal Inc., 1744 rue Williams, Montreal, Quebec, Canada or obtained from M. Thibonnier, Case Western Reserve University School of Medicine, Cleveland, Ohio.
# A. Passaging and Amplification of Cells:
# CHO cells transfected with the human vasopressin V1a subtype receptors obtained from M. Thibonnier (pZeoSV vector) are allowed to grow to confluency (approx. >90%) in T-150 flasks under sterile conditions, in a cell culture medium of F-12 Nutrient Mixture (HAM) with L-glutamine (Gibco Cat. #11765-054) containing 15 mM HEPES (Gibco Cat. #15630-080), 1% antibiotic/antimycotic (add 5 mL 100×, Gibco Cat. #15240-062 per 500 mL F-12), 250 μg/mL Zeocin (add 1.25 mL of 100 mg/mL Invitrogen R-250-01 per 500 mL F-12) and 10% Fetal Bovine Serum (Qualified, heat inactivated, Gibco Cat. #16140-063). The medium is removed by aspiration and the cells are washed with 10 mL of Hank's Balanced Salt solution (Gibco Cat. #14175-095). The salt solution is removed by aspiration and the cells are trypsinized with 5 mL of trypsin-EDTA (0.05% trypsin, 0.53 mM EDTA-4Na, Gibco Cat. #25300-070) for 1 min. The trypsin is removed by aspiration and the cells dislodged by tapping. Cell Culture medium (eg, 30 mL for 1:30 split) is immediately added and mixed well to inactivate trypsin. 1 mL of detached cells is added to new culture flasks containing fresh cell culture medium (eg, into 25 mL per T-150 flask), and mixed gently. The cells are incubated at 37° C. in 5% CO2. The medium is changed at 3 to 4 days interval (or as appropriate). The cells grow to confluency (approx. >75%-95%) within 7-8 days. All steps are done under sterile conditions.
# The cells are washed twice gently with Hank's Balanced Salt solution (e.g,. use 10 mL per T-150 flask). The excess is removed and the cells are bathed for 15-30 min. in an enzyme-free Cell Dissociation Buffer (e.g. use 8 mL Hank's Based, Gibco Cat. #13150-016 per T-150 flask) until the cells are loosened. The contents are transferred to centrifuge tubes (50 mL size) kept in ice bath. All subsequent steps are done at 4° C. The tubes are centrifuged at 300×g for 15 min (1380 rpm on SORVAL, Model RT6000D, using rotor for 50 mL tubes). The supernatant is discarded and the cells suspended in homogeneizing buffer(10 mM Tris-HCl containing 0.25 M sucrose and 1 mM EDTA, pH 7.4) ensuring that the volume of the buffer is about ten times the volume of the cell pellet. The cells are pooled into a centrifuge tube (50 mL) and homogenized with Polytron at setting 6 for 10 sec. The homogenate is transferred into a Potter-Elvjehm homogenizer and homogenized with 3 strokes. The homogenate is centrifuged at 1500×g for 10 min at 4° C. (3100 rpm using SORVAL, model RT6000D, using rotor for 50 mL tubes). The pellet is discarded. The supernatant is centrifuged at 100,000×g for 60 min. at 4° C. (Beckman L8-80M ultracentrifuge; spin at 37,500 rpm with rotor type 70 Ti for 50 mL tubes; 38,000 rpm with type 80Ti for 15 mL tubes; or 35,800 rpm with rotor type 45Ti). The supemantant is discarded and the pellet suspended in 3 to 4 mL of Tris buffer (50 mM TRIS-HCl, pH 7.4). The protein content is estimated by the Bradford or Lowry method. The volume of the membrane suspension is adjusted with the membrane buffer (50 mM Tris-HCl containing 0.1% BSA and 0.1 mM PMSF) to give 3.0 mg/mL (or as appropriate) of protein. The membranes are aliquoted and stored at −70° C.
# C. Radioligand Binding Assay: […]
# T1 sequence (P37288 whole entry): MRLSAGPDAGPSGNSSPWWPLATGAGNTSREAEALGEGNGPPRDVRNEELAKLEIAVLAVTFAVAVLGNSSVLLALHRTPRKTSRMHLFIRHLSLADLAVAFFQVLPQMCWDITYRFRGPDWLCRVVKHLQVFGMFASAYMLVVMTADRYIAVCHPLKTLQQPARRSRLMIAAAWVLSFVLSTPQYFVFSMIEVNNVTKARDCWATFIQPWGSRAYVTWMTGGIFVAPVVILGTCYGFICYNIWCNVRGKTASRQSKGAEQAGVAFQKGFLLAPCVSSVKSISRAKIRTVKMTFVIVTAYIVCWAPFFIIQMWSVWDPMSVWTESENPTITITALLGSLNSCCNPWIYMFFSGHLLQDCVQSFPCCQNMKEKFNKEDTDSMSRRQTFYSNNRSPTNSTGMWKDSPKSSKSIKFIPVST
IC50,inhibition at 0.1 µM,Compound,further results
879 nM,,"COc1cc(C2=CCCCC2)c(Cl)cc1C(=O)N1Cc2ccc(C(=O)N(C)C[C@H](O)[C@@H](O)[C@H](O)[C@H](O)CO)n2Cc2ccccc21 [Example 1, 1-[[[10-[5-Chloro-4-(1-cyclohex-1-en-1-yl)-2-methoxybenzoyl]-10,11-dihydro-5H-pyrrolo[2,1-c][1,4]benzodiazepin-3-yl]carbonyl]methylamino]-1-deoxy-D-glucitol]",
,0%,"COc1cc(C2=CCCCC2)c(Cl)cc1C(=O)N1Cc2ccc(C(=O)O)n2Cc2ccccc21 [Example 1G, 10-(5-Chloro-4-cyclohex-1-en-1-yl-2-methoxybenzoyl)-10,11-dihydro-5H-pyrrolo[2,1-c][1,4]benzodiazepine-3-carboxylic acid]",
2190 nM,,"COC[C@@H](OC)[C@@H](OC)[C@H](OC)[C@H](CN(C)C(=O)c1ccc2n1Cc1ccccc1N(C(=O)c1cc(Cl)c(C3=CCCCC3)cc1OC)C2)OC [Example 2, 10-(5-Chloro-4-cyclohex-1-en-1-yl-2-methoxybenzoyl)-N-methyl-N-[(2S,3R,4R,5R)-2,3,4,5,6-pentamethoxyhexyl]-10,11-dihydro-5H-pyrrolo[2,1-c][1,4]benzodiazepine-3-carboxamide]",
1460 nM,,"COc1cc(C2=CCCCC2)c(Cl)cc1C(=O)N1Cc2ccc(C(=O)N(C)C[C@@H]3OC(=O)O[C@H]3[C@H](O)[C@H]3COC(=O)O3)n2Cc2ccccc21 [Example 3, 10-(5-Chloro-4-cyclohex-1-en-1-yl-2-methoxybenzoyl)-N-[((4S,5S)-5-{(R)-hydroxy[(4R)-2-oxo-1,3-dioxolan-4-yl]methyl}-2-oxo-1,3-dioxolan-4-yl)methyl]-N-methyl-10,11-dihydro-5H-pyrrolo[2,1-c][1,4]benzodiazepine-3-carboxamide]",
613 nM,,"COc1cc(C2=CCCCC2)c(Cl)cc1C(=O)N1Cc2ccc(C(=O)N(C)CC(O)CO)n2Cc2ccccc21 (centres unmarked) [Example 4, 10-(5-Chloro-4-cyclohex-1-en-1-yl-2-methoxybenzoyl)-N-(2,3-dihydroxypropyl)-N-methyl-10,11-dihydro-5H-pyrrolo[2,1-c][1,4]benzodiazepine-3-carboxamide]",
,,"Cc1cc(C(=O)N2Cc3ccc(C(=O)C(Cl)(Cl)Cl)n3Cc3ccccc32)ccc1C1=CCCCC1 [Example 5D, 2,2,2-Trichloro-1-[10-(4-cyclohex-1-en-1-yl-3-methyl-benzoyl)-10,11-dihydro-5H-pyrrolo[2,1-c][1,4]benzodiazepin-3-yl]-methanone]",V1a % inhibition @ 100 nM: 0%
,8%,"Cc1cc(C(=O)N2Cc3ccc(C(=O)O)n3Cc3ccccc32)ccc1C1=CCCCC1 [Example 5E, 10-(4-Cyclohex-1-en-1-yl-3-methyl-benzoyl)-10,11-dihydro-5H-pyrrolo[2,1-c][1,4]benzodiazepine-3-carboxylic acid]",
182 nM,,Cc1cc(C(=O)N2Cc3ccc(C(=O)N(C)C[C@H](O)[C@@H](O)[C@H](O)[C@H](O)CO)n3Cc3ccccc32)ccc1C1=CCCCC1 [Example 5],
62.4 nM,,"Cc1cc(C(=O)N2Cc3ccc(C(=O)N(C)C[C@H](O)[C@H]4OC(=O)O[C@@H]4[C@H](O)CO)n3Cc3ccccc32)ccc1C1=CCCCC1 [Example 6, 10-(4-Cyclohex-1-en-1-yl-3-methylbenzoyl)-N-((2S)-2-{(4R,5R)-5-[(1R)-1,2-dihydroxyethyl]-2-oxo-1,3-dioxolan-4-yl}-2-hydroxyethyl)-N-methyl-10,11-dihydro-5H-pyrrolo[2,1-c][1,4]benzodiazepine-3-carboxamide]",
,62%,"Cc1cc(C(=O)N2Cc3ccc(C(=O)N(C)C[C@@H]4OC(=O)O[C@H]4[C@H](O)[C@H]4COC(=O)O4)n3Cc3ccccc32)ccc1C1=CCCCC1 [Example 7, 10-(4-Cyclohex-1-en-1-yl-3-methylbenzoyl)-N-[((4S,5S)-5-{(R)-hydroxy[(4R)-2-oxo-1,3-dioxolan-4-yl]methyl}-2-oxo-1,3-dioxolan-4-yl)methyl]-N-methyl-10,11-dihydro-5H-pyrrolo[2,1-c][1,4]benzodiazepine-3-carboxamide]",
315 nM,,"COC[C@@H](OC)[C@@H](OC)[C@H](OC)[C@H](CN(C)C(=O)c1ccc2n1Cc1ccccc1N(C(=O)c1ccc(C3=CCCCC3)c(C)c1)C2)OC [Example 8, 10-(4-Cyclohex-1-en-1-yl-3-methylbenzoyl)-N-methyl-N-[(2S,3R,4R,5R)-2,3,4,5,6-pentamethoxyhexyl]-10,11-dihydro-5H-pyrrolo[2,1-c][1,4]benzodiazepine-3-carboxamide]",
,6%,"CCOC(=O)[C@H](Cc1ccc(O)cc1)NC(=O)c1ccc2n1Cc1ccccc1N(C(=O)c1ccc(C3=CCCCC3)c(C)c1)C2 [Example 9, (2S)-2-{[10-(4-Cyclohex-1-en-1-yl-3-methyl-benzoyl)-10,11-dihydro-5H-pyrrolo[2,1-c][1,4]benzodiazepine-3-carbonyl]-amino}-3-(4-hydroxy-phenyl)-propionic acid ethyl ester]",
,,Cc1cc(C(=O)N2Cc3ccc(C(=O)N[C@@H](Cc4ccc(O)cc4)C(=O)O)n3Cc3ccccc32)ccc1C1=CCCCC1 [Example 10],V1a % inhibition @ 100 nM: 14%
,6%,"COC(=O)[C@H](CO)NC(=O)c1ccc2n1Cc1ccccc1N(C(=O)c1ccc(C3=CCCCC3)c(C)c1)C2 [Example 11, (2S)-2-{[10-(4-Cyclohex-1-en-1-yl-3-methyl-benzoyl)-10,11-dihydro-5H-pyrrolo[2,1-c][1,4]benzodiazepine-3-carbonyl]-amino}-3-hydroxy-propionic acid methyl ester]",
,16%,"COC(=O)[C@@H](CO)NC(=O)c1ccc2n1Cc1ccccc1N(C(=O)c1ccc(C3=CCCCC3)c(C)c1)C2 [Example 12, (2R)-2-{[10-(4-Cyclohex-1-en-1-yl-3-methyl-benzoyl)-10,11-dihydro-5H-pyrrolo[2,1-c][1,4]benzodiazepine-3-carbonyl]-amino}-3-hydroxy-propionic acid methyl ester]",
,5%,"Cc1cc(C(=O)N2Cc3ccc(C(=O)N[C@@H](CO)C(=O)O)n3Cc3ccccc32)ccc1C1=CCCCC1 [Example 13, (2S)-2-{[10-(4-Cyclohex-1-en-1-yl-3-methyl-benzoyl)-10,11-dihydro-5H-pyrrolo[2,1-c][1,4]benzodiazepine-3-carbonyl]-amino}-3-hydroxy-propionic acid]",
,6%,"Cc1cc(C(=O)N2Cc3ccc(C(=O)N[C@H](CO)C(=O)O)n3Cc3ccccc32)ccc1C1=CCCCC1 [Example 14, (2R)-2-{[10-(4-Cyclohex-1-en-1-yl-3-methyl-benzoyl)-10,11-dihydro-5H-pyrrolo[2,1-c][1,4]benzodiazepine-3-carbonyl]-amino}-3-hydroxy-propionic acid]",
,-2%,"Cc1cc(C(=O)N2Cc3ccc(C(=O)O)n3Cc3ccccc32)ccc1C1=CCCc2ccccc21 [Example 15B, 10-[4-(3,4-Dihydro-naphthalen-1-yl)-3-methyl-benzoyl]-10,11-dihydro-5H-pyrrolo[2,1-c][1,4]benzodiazepine-3-carboxylic acid]",
646 nM,,Cc1cc(C(=O)N2Cc3ccc(C(=O)N(C)C[C@H](O)[C@@H](O)[C@H](O)[C@H](O)CO)n3Cc3ccccc32)ccc1C1=CCCc2ccccc21 [Example 15],
,,"Cc1cc(C(=O)N2Cc3ccc(C(=O)N(CCO)CCO)n3Cc3ccccc32)ccc1C1=CCCc2ccccc21 [Example 16, {10-[4-(3,4-Dihydro-naphthalen-1-yl)-3-methyl-benzoyl]-10,11-dihydro-5H-pyrrolo[2,1-c][1,4]benzodiazepin-3-yl}-3-carboxylic acid bis-(2-hydroxy-ethyl)-amide]",V1a % inhibition @ 100 nM: 6%
